In patent US20080261895A1 (Wyeth, priority 2006, published 2008):
“And” between values parts separate entries of the source, which are not always exact repeats. Identical values can stand only once. Marks after values point to notes of the source that are not given here.

What was measured:
[1] = Urinary excretion and metabolite profile by radiochromatography, dogs; format: in vivo, beagle dogs; conditions: single oral 30 mg/kg
Description: For each dog, urine and feces were collected separately, with urine collected on dry ice and feces collected at room temperature. Collections were from 0-8 and 8-24 hours for urine and 0-24 hours for feces. Urine and fecal samples were shipped on dry ice to Wyeth Research, Biotransformation Division (Collegeville, Pa.) for analysis. Fecal samples were homogenized in approximately five volumes (v/w) of water. Aliquots of approximately 0.2 grams of the homogenate were placed into combusto-cones, weighed and allowed to air dry. These samples were then oxidized and radioactivity content determined. The remaining urine samples and fecal homogenates were stored at −70° C. until metabolite analysis. Blood samples and fecal homogenates were oxidized in a Model 307 Tri-Carb sample oxidizer, using Carbosorb® E (6 mL) as trapping agent and PermaFluor® E^+ (10 mL) as scintillant. The background reading (average of control blood or fecal samples) was subtracted from each sample reading. Aliquots of urine and plasma were analyzed directly following the addition of 10 mL of Ultima Gold™ scintillation fluid.
Urine samples collected between 8 and 24 hours post-dose were analyzed for metabolite profiles. Aliquots of urine were centrifuged at 14000 rpm in an Eppendorf Model 5415C centrifuge for 10 minutes. The supernatant was transferred to a fresh tube and analyzed for radioactivity content and by HPLC for metabolite profiling. Selected samples were also analyzed by LC/MS to characterize the radioactive peaks.
(§1) Chromatographic analyses were performed with a Waters Alliance model 2690 HPLC system (Waters Corp., Milford, Mass.). It was equipped with a built-in autosampler and was in-line with a model 2487 tunable UV detector, set to monitor 225 nm, and a FloOne β Model 515 radioactivity flow detector (Perkin Elmer) with a 250 μL LQTR flow cell. The flow rate of Ultima Flow M scintillation fluid was 3 mL/min, providing a mixing ratio of scintillation cocktail to mobile phase of 3:1. Separation of the metabolite peaks was accomplished on a Phenomenex Luna C18(2) column, 250×4.6 mm, 5 micron (Phenomenex, Torrance, Calif.), using a linear gradient of two mobile phases, A and B. Mobile phase A was 10 mM ammonium acetate, pH 5.5, and mobile phase B was acetonitrile. The flow rate was 1 mL/min.

[2] = Urinary excretion and metabolite profile by radiochromatography, rats; format: in vivo, Sprague Dawley rats; conditions: for Compounds Detected by Radiochromatography in urine (Mean ± S.D., n = 3), percent of total peaks / Radioactivity as % of Dose in urine, Mean ± S.D. / Radioactivity as % of Dose in urine, Individuals: single oral 20 mg/kg; for Radioactivity as % of Dose in urine, Individuals: listed as [^14C]DVS, 20 mg/kg
Description: Urine and feces were collected separately on dry ice from three animals per sex. Collections were from 0-8 and 8-24 hours for male rats and 0-8 hours for female rats. Fecal samples were homogenized in approximately five volumes (v/w) of water. Aliquots of approximately 0.4 grams of the homogenate were placed into combusto-cones, weighed and allowed to air dry. These samples were then oxidized. The remaining urine samples and fecal homogenates were stored at −70° C. until metabolite analysis.
All urine samples were analyzed for metabolite profiles. Aliquots of 0.5 mL urine were centrifuged at 3500 rpm and 4° C. in a Sorvall Super 21 centrifuge for 10 minutes. The supernatant was transferred to a fresh tube and analyzed for radioactivity content and by HPLC for profiling. Selected samples were also analyzed by LC/MS to characterize the radioactive peaks.
as §1, with “β Model 525 radioactivity flow” for “β Model 515 radioactivity flow”, “fluid was 1 mL/min, providing” for “fluid was 3 mL/min, providing”, “phase of 5:1. Separation of” for “phase of 3:1. Separation of”, “C18(2) column, 150×2.0 mm, 5” for “C18(2) column, 250×4.6 mm, 5”, “acetate, pH 6.0, and mobile” for “acetate, pH 5.5, and mobile”, “rate was 0.2 mL/min.” for “rate was 1 mL/min.”

[3] = test system: dog liver microsomes; assay: Glucuronidation in dog liver microsomes; format: in vitro ADME; conditions: dog liver microsomes 1 mg/mL, 100 μM, 30 minutes; in the presence of only UDPGA
Description: To confirm the site of glucuronidation of DVS, incubations were performed using dog liver microsomes. These incubations compared the glucuronidation of DVS to venlafaxine. […] Reactions were initiated by the addition of UDPGA (final concentration 1 mM). An additional set of incubations was performed for venlafaxine with UDPGA and an NADPH generating system. […] Reactions were stopped by the addition of 500 μL of acetonitrile and processed as described above. Samples were analyzed by LC/MS.

[4] = includes 0-8 and 8-24 hour time points, 30 mg/kg

## CN(C)CC(c1ccc(O)cc1)C1(O)CCCCC1.O=C(O)CCC(=O)O (centres unmarked) [DVS, O-desmethylvenlafaxine succinate]
[1]; [4]
  Radioactivity as % of Dose in urine, Mean ± S.D.: 74.8 ± 13.0^b %
  Radioactivity as % of Dose in urine, individual dogs: 85.4% and 63.0% and 86.6% and 64.0%
[1]; includes 0-8 and 8-24 hour time points, listed as [^14C]DVS, 30 mg/kg
  Radioactivity as % of Dose in urine, Mean ± S.D.: 75%
[1]; urine 8-24 hours post-dose
  Compounds Detected by Radiochromatography in urine, percent of total peaks, Mean ± S.D.: 5.8 ± 1.6%
[1]; urine 8-24 hours post-dose, mean of 2 analyses, 30 mg/kg
  Compounds Detected by Radiochromatography in urine, percent of total peaks, individual dogs: 7.9% and 5.7% and 5.4% and 4.0%
[2]; 0-8 hr, female
  Compounds Detected by Radiochromatography in urine (Mean ± S.D., n = 3), percent of total peaks: 20.0 ± 3.5%
  Radioactivity as % of Dose in urine, Mean ± S.D.: 54.5 ± 12%
  Radioactivity as % of Dose in urine, Individuals: 53.8% and 42.7% and 67.1%
[2]; 0-8 hr, male
  Compounds Detected by Radiochromatography in urine (Mean ± S.D., n = 3), percent of total peaks: 10.9 ± 2.1%
  Radioactivity as % of Dose in urine, Mean ± S.D.: 59.1 ± 7.9%
  Radioactivity as % of Dose in urine, Individuals: 60.1% and 50.7% and 66.5%
[2]; 8-24 hr, male
  Compounds Detected by Radiochromatography in urine (Mean ± S.D., n = 3), percent of total peaks: 9.1 ± 1.1%
  Radioactivity as % of Dose in urine, Mean ± S.D.: 25.5 ± 6.4%
  Radioactivity as % of Dose in urine, Individuals: 24.6% and 32.3% and 19.7%
[2]; within 24 hours post-dose
  % of the radioactive dose recovered in urine: 85%
[2]; within the first 8 hours post-dose
  % of the radioactive dose recovered in urine: greater than 50%
[3]
  glucuronidation: observed
